Assay results reported in patent publication US8642647B2, “N1-benzo[1,3]dioxol-5-ylmethyl-N2-substituted biguanide derivative, preparation method thereof, and pharmaceutical composition containing same” (Hanall Biopharma Co., Ltd., priority 2008, dated 2014).

Columns and labels:
Format in all cases: cell-based
HepG2 cells [1] = experiment: Measurement of cholesterol synthesis inhibitory ability; details: 24 hours, HepG2 cells, content of cholesterol formed, lower value = stronger inhibition; for Cholesterol (100 μM) aver.: 100 μM compound; for Cholesterol (500 μM) aver.: 500 μM compound
Procedure: (§1) 2 mM metformin was used as a comparative compound for each of the plates (control group).
A cholesterol synthesis inhibitory ability, which is an important function of AMPK (AMP-activated protein kinase), was measured using HepG2 cells (ATCC: American Type Culture Collection) as a hepatic cell model according to the following procedure.
The hepatic cell model HepG2 cells were cultured in 1% serum-containing media (DMEM (Gibco), FBS (Gibco)) for 24 hours, and then treated with 100 μM or 500 μM of each of the compounds prepared in Examples for 24 hours. Then, the cells were disrupted with a lysis solution (0.1 M potassium phosphate, pH 7.4, 0.05 M NaCl, 5 mM cholic acid, 0.1% Triton X-100 (Sigma)). To the disrupted cells was added the same volume of a reaction solution (2 U/ml of a cholesterol oxidizing agent, 2 U/ml of a peroxidase, 0.2 U/ml of a cholesterol esterase, and 300 μM of Amplex red as a fluorescent factor (Molecular Probe)), which was allowed to react at 37° C. for 30 minutes. After completion of the reaction, the content of cholesterol formed in the cell lysates was measured at a wavelength of 560/590 nm (ex/em) using a fluorescence microscope.
A lower measurement value means an increased cholesterol synthesis inhibitory ability.

HepG2 cells [2] = experiment: Measurement of gluconeogenesis inhibitory ability; details: Homo sapiens, HepG2, 24 h, 100 μM compound, 24 hours, HepG2 cells; content of glucose formed from 14C-lactate; lower value = stronger inhibition; read-out: Gluconeogenesis inhibition (100 μM) aver.
Procedure: as §1
HepG2 cells (ATCC: American Type Culture Collection) were cultured in 10% serum-containing high glucose media, transferred to no serum-containing low glucose media (DMEM (Gibco), FBS (Gibco)), and then treated with 100 μM of each of the compounds for 24 hours. Then, the cells were treated with 0.5 μCi ^14C-lactate (Amersham Pharmacia) and 10 mM L-lactate (Sigma), and cultured for 4 hours. After cultivation, the media were removed therefrom, and the cells were washed with PBS, treated with 0.1N NaOH and kept at room temperature for 1 hour. Then, the cells were neutralized with 1N HCl, and the content of glucose formed in the cells was measured with a liquid scintillation counter.
A lower measurement value means an increased gluconeogenesis inhibitory ability.

HepG2 cells [3] = experiment: Measurement of triglyceride synthesis inhibitory ability; details: for Triglyceride (100 μM) aver.: 100 μM compound; for Triglyceride (100 μM) aver. / Triglyceride (500 μM) aver.: 24 hours, HepG2 cells, content of triglyceride formed, lower value = stronger inhibition; for Triglyceride (500 μM) aver.: 500 μM compound
Procedure: as §1
HepG2 cells (ATCC: American Type Culture Collection) were cultured in 1% serum-containing media (DMEM (Gibco), FBS (Gibco)) for 24 hours, and then treated with 100 μM or 500 μM of each of the compounds prepared in Examples for 24 hours. Then, the cells were disrupted with a lysis solution (0.1 M potassium phosphate, pH 7.4, 0.05 M NaCl, 5 mM cholic acid, 0.1% Triton X-100). To the disrupted cells was added the same volume of a reaction solution (0.76 U/ml of a glycerol kinase (Asan Pharmaceutical Co., Ltd.), […] of a peroxidase (Asan Pharmaceutical Co., Ltd.), 22.2 U/ml of a glycerol oxidizing agent (Asan Pharmaceutical Co., Ltd.), and 300 μM of Amplex red as a fluorescent factor (Molecular Probe)), which was allowed to react at 37° C. for 30 minutes. After completion of the reaction, the content of triglyceride formed in the cell lysates was measured at a wavelength of 560/590 nm (ex/em) using a fluorescence microscope.
A lower measurement value means an increased triglyceride synthesis inhibitory ability.

C2C12 cells = experiment: Measurement of glucose absorption ability; details: 100 μM compound versus 2 mM metformin
Procedure: as §1
C2C12 cells (ATCC: American Type Culture Collection), a muscle cell model, were induced to differentiate into muscle cells in 2% bovine fetal serum-containing media (DMEM (Gibco), FBS (Gibco)) for 6 days. The C2C12 cells which differentiated into muscle cells were transferred to serum-free low glucose media (DMEM (Gibco), FBS (Gibco)), treated with 100 μM of each of the compounds, and then cultured with 1 μM of insulin for 24 hours. After cultivation, the cells were treated with 1 μCi ^3H-deoxy-glucose (Amersham Pharmacia) and 10 μM deoxy-glucose (Sigma) at 37° C. for 15 minutes. The media were removed therefrom, and the cells were washed twice with PBS (phosphate buffered saline). The washed cells were treated with 0.1N NaOH and neutralized with 1N HCl. The content of glucose absorbed into the cells was measured with a liquid scintillation counter.
A higher measurement value means a stronger ability to reduce insulin resistance.

Structure (SMILES)	Cholesterol (100 μM) aver. (HepG2 cells [1])	Cholesterol (500 μM) aver. (HepG2 cells [1])	activity at 100 µM (HepG2 cells [2])	Triglyceride (100 μM) aver. (HepG2 cells [3])	Triglyceride (500 μM) aver. (HepG2 cells [3])	glucose absorption effect better than that of the control group (C2C12 cells)	effect in inhibiting triglyceride synthesis better than that of the control group (HepG2 cells [3]; 100 μM compound versus 2 mM metformin)
Cl.N=C(N)NC(=NCc1ccccc1)NCc1ccc2c(c1)OCO2 [Example 5, N1-benzo[1,3]dioxol-5-ylmethyl-N2-benzyl biguanide hydrochloride]	30.3	−8.28	108%	102.8	15.7	about 220 times	
Cl.N=C(N)NC(=Nc1ccc(Oc2ccccc2)cc1)NCc1ccc2c(c1)OCO2 [Example 30, N1-benzo[1,3]dioxol-5-ylmethyl-N2-(4-phenoxyphenyl)biguanide hydrochloride]	21.94	40.34	3.04%	18.22	3.05		
COCCN=C(NCc1ccc2c(c1)OCO2)NC(=N)N.Cl [Example 31, N1-benzo[1,3]dioxol-5-ylmethyl-N2-(2-methoxyethyl)biguanide hydrochloride]	84.45	69.16	100%	74.51	73.00		
Cl.N=C(N)NC(=Nc1ccc(Br)cc1)NCc1ccc2c(c1)OCO2 [Example 32, N1-benzo[1,3]dioxol-5-ylmethyl-N2-(4-bromophenyl)biguanide hydrochloride]	11.62	20.56	4.42%	35.08	17.38		
CC(C)(C)c1ccc(N=C(NCc2ccc3c(c2)OCO3)NC(=N)N)cc1.Cl [Example 33, N1-benzo[1,3]dioxol-5-ylmethyl-N2-(4-t-butylphenyl)biguanide hydrochloride]	20.42	30.52	2.35%	27.40	7.08		
Cl.N=C(N)NC(=Nc1cc(Cl)cc(Cl)c1)NCc1ccc2c(c1)OCO2 [Example 34, N1-benzo[1,3]dioxol-5-ylmethyl-N2-(3,5-dichlorophenyl)biguanide hydrochloride]	15.56	39.12	2.37%	21.41	8.80		
Cl.N=C(N)NC(=NCc1ccc(Br)cc1)NCc1ccc2c(c1)OCO2 [Example 36, N1-benzo[1,3]dioxol-5-ylmethyl-N2-(4-bromobenzyl)biguanide hydrochloride]	25.31	40.17	92.9%	61.93	24.04		
COc1ccc(CN=C(NCc2ccc3c(c2)OCO3)NC(=N)N)cc1.Cl [Example 37, N1-benzo[1,3]dioxol-5-ylmethyl-N2-(4-methoxybenzyl)biguanide hydrochloride]	60.36	32.20	104%	62.82	58.60		at least 20 times
Cl.N=C(N)NC(=NC1CC1)NCc1ccc2c(c1)OCO2 [Example 38, N1-benzo[1,3]dioxol-5-ylmethyl-N2-cyclopropyl biguanide hydrochloride]	57.32	47.06	78.9%	95.00	61.43		
CCCCN=C(NCc1ccc2c(c1)OCO2)NC(=N)N.Cl [Example 39, N1-benzo[1,3]dioxol-5-ylmethyl-N2-butyl biguanide hydrochloride]	70.48	49.52	87.3%	98.77	64.23		
CCCCCN=C(NCc1ccc2c(c1)OCO2)NC(=N)N.Cl [Example 40, N1-benzo[1,3]dioxol-5-ylmethyl-N2-pentyl biguanide hydrochloride]	57.36	27.89	84.6%	101.4	50.00		
Cl.N=C(N)NC(=Nc1cccc(Br)c1)NCc1ccc2c(c1)OCO2 [Example 41, N1-benzo[1,3]dioxol-5-ylmethyl-N2-(3-bromophenyl)biguanide hydrochloride]	23.61	32.23	0%	25.51	19.79		
Cc1cccc(N=C(NCc2ccc3c(c2)OCO3)NC(=N)N)c1.Cl [Example 42, N1-benzo[1,3]dioxol-5-ylmethyl-N2-(3-methylphenyl)biguanide hydrochloride]	46.42	28.95	56.1%	75.45	36.78		
Cl.N=C(N)NC(=NCc1ccc(F)cc1)NCc1ccc2c(c1)OCO2 [Example 43, N1-benzo[1,3]dioxol-5-ylmethyl-N2-(4-fluorobenzyl)biguanide hydrochloride]	73.10	47.65	83.5%	82.02	63.67		
Cl.N=C(N)NC(=NCc1ccc(F)c(F)c1)NCc1ccc2c(c1)OCO2 [Example 44, N1-benzo[1,3]dioxol-5-ylmethyl-N2-(3,4-difluorobenzyl)biguanide hydrochloride]	74.32	49.84	103%	78.42	56.79		
Cl.N=C(N)NC(=Nc1ccccc1)NCc1ccc2c(c1)OCO2 [Example 45, N1-benzo[1,3]dioxol-5-ylmethyl-N2-phenyl biguanide hydrochloride]	77.21	23.24	117%	96.12	35.45		
COCCOCCOCCN=C(NCc1ccc2c(c1)OCO2)NC(=N)N.Cl [Example 46, N1-benzo[1,3]dioxol-5-ylmethyl-N2-(2-(2-(2-methoxyethoxy)ethoxy)ethyl)biguanide hydrochloride]	90.31	91.68	101%	89.69	93.41		
